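Interpolation was linear, between the two tested concentrations surrounding the appropriate level; five concentrations were tested over 48 hours in 96-well plates. GI50: concentration for 50% inhibition of growth.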 Active and inactive are the calls of the source. No stated cut-off is given here; in the data, active = GI50 up to about 1.1 µM and inactive = higher.
Legend:
Assay in all cases: inhibition of tumour cell growth, NCI panel, 48 h
NCI-H522 = system: NCI-H522
Hs-578T = system: Hs-578T
SW-620 = system: SW-620
MDA-MB-231 = system: MDA-MB-231
SNB-19 = system: SNB-19
NCI/ADR-RES = system: NCI/ADR-RES
COLO 205 = system: COLO 205
MDA-MB-435 = system: MDA-MB-435
EKVX = system: EKVX
HCT-15 = system: HCT-15
OVCAR-3 = system: OVCAR-3
OVCAR-8 = system: OVCAR-8
HT-29 = system: HT-29
SK-MEL-28 = system: SK-MEL-28
UACC-257 = system: UACC-257
Malme-3M = system: Malme-3M
HCC 2998 = system: HCC 2998

COc1cc(C(O)CCBr)c(OC)cc1C (stereo not drawn)
GI50 (NCI-H522): 27.5 µM (inactive)
GI50 (Hs-578T): 25.1 µM (inactive)
GI50 (SW-620): 3.13 µM (inactive)
GI50 (MDA-MB-231): 21.2 µM (inactive)
GI50 (SNB-19): > 75.5 µM (inactive)
GI50 (NCI/ADR-RES): 7.43 µM (inactive)
GI50 (COLO 205): 17.6 µM (inactive)
GI50 (MDA-MB-435): 4.3 µM (inactive)
GI50 (EKVX): > 100 µM (inactive)
GI50 (HCT-15): 7.4 µM
GI50 (OVCAR-3): 13.4 µM (inactive)
GI50 (OVCAR-8): 6.97 µM (inactive)
GI50 (HT-29): 6.17 µM (inactive)
GI50 (SK-MEL-28): 24.4 µM (inactive)
GI50 (UACC-257): 27.7 µM (inactive)
GI50 (Malme-3M): 22.5 µM (inactive)

Nc1c(C(=O)c2ccccc2)nnc2ccccc12
GI50 (SW-620): 41.2 µM (inactive)
GI50 (MDA-MB-231): 18.2 µM (inactive)
GI50 (SNB-19): 37.9 µM (inactive)
GI50 (NCI/ADR-RES): 21.5 µM (inactive)
GI50 (HCC 2998): 23.4 µM (inactive)
GI50 (COLO 205): 18.5 µM (inactive)
GI50 (MDA-MB-435): 21.9 µM (inactive)
GI50 (EKVX): 22.6 µM (inactive)
GI50 (HCT-15): 30.1 µM
GI50 (OVCAR-8): 33.7 µM (inactive)
GI50 (HT-29): 25.8 µM (inactive)
GI50 (SK-MEL-28): 43.9 µM (inactive)
GI50 (UACC-257): 28.2 µM (inactive)
GI50 (Malme-3M): 27 µM (inactive)

CC1(C)CC(C2=NCCO2)CC(C)(C)N1
GI50 (Hs-578T): > 100 µM (inactive)
GI50 (MDA-MB-231): > 100 µM (inactive)
GI50 (SNB-19): > 100 µM (inactive)
GI50 (NCI/ADR-RES): > 100 µM (inactive)
GI50 (COLO 205): > 100 µM (inactive)
GI50 (MDA-MB-435): > 100 µM (inactive)
GI50 (EKVX): > 100 µM (inactive)
GI50 (HCT-15): > 100 µM
GI50 (OVCAR-3): > 100 µM (inactive)
GI50 (OVCAR-8): > 100 µM (inactive)
GI50 (HT-29): > 100 µM (inactive)
GI50 (SK-MEL-28): > 100 µM (inactive)
GI50 (UACC-257): > 100 µM (inactive)
GI50 (Malme-3M): > 100 µM (inactive)

CSc1ccc(-c2cc(-c3nc4ccccc4[nH]3)nc3[nH]c(-c4nc5ccccc5[nH]4)cc(=O)c23)cc1
GI50 (NCI-H522): > 100 µM (inactive)
GI50 (Hs-578T): > 100 µM (inactive)
GI50 (SNB-19): > 100 µM (inactive)
GI50 (NCI/ADR-RES): > 100 µM (inactive)
GI50 (HCC 2998): 5.33 µM (inactive)
GI50 (COLO 205): 37.8 µM (inactive)
GI50 (MDA-MB-435): 41.1 µM (inactive)
GI50 (EKVX): 27.1 µM (inactive)
GI50 (HCT-15): > 100 µM
GI50 (OVCAR-3): > 100 µM (inactive)
GI50 (OVCAR-8): 71 µM (inactive)
GI50 (HT-29): 68.5 µM (inactive)
GI50 (UACC-257): > 100 µM (inactive)
GI50 (Malme-3M): > 100 µM (inactive)

CCC1(O)CC(CCN(Cc2ccccc2)C(=O)OCc2ccccc2)C(OCc2ccccc2)C1O (stereo not drawn)
GI50 (NCI-H522): 10.1 µM (inactive)
GI50 (SW-620): 36.1 µM (inactive)
GI50 (MDA-MB-231): 27.2 µM (inactive)
GI50 (SNB-19): 15.6 µM (inactive)
GI50 (NCI/ADR-RES): 10.8 µM (inactive)
GI50 (HCC 2998): 14 µM (inactive)
GI50 (COLO 205): 16.2 µM (inactive)
GI50 (MDA-MB-435): 18.4 µM (inactive)
GI50 (EKVX): 15.7 µM (inactive)
GI50 (HCT-15): 13.4 µM
GI50 (OVCAR-3): 13 µM (inactive)
GI50 (OVCAR-8): 15.6 µM (inactive)
GI50 (HT-29): 15.3 µM (inactive)
GI50 (SK-MEL-28): 15.7 µM (inactive)
GI50 (UACC-257): 16.1 µM (inactive)

ClC1=NN=C(c2c[nH]c3ccccc23)CC1NCc1ccccc1 (stereo not drawn)
GI50 (NCI-H522): > 100 µM (inactive)
GI50 (Hs-578T): > 100 µM (inactive)
GI50 (SW-620): > 100 µM (inactive)
GI50 (MDA-MB-231): > 100 µM (inactive)
GI50 (SNB-19): > 100 µM (inactive)
GI50 (NCI/ADR-RES): > 100 µM (inactive)
GI50 (COLO 205): > 100 µM (inactive)
GI50 (MDA-MB-435): > 100 µM (inactive)
GI50 (EKVX): > 100 µM (inactive)
GI50 (HCT-15): > 100 µM
GI50 (OVCAR-3): > 100 µM (inactive)
GI50 (OVCAR-8): > 100 µM (inactive)
GI50 (HT-29): > 100 µM (inactive)
GI50 (SK-MEL-28): > 100 µM (inactive)
GI50 (UACC-257): > 100 µM (inactive)
GI50 (Malme-3M): > 100 µM (inactive)

CCOC(=O)c1c(-c2ccccc2)c(-c2ccccc2)cn1C
GI50 (NCI-H522): > 10 µM (inactive)
GI50 (Hs-578T): 4.92 µM (inactive)
GI50 (SNB-19): > 10 µM (inactive)
GI50 (NCI/ADR-RES): 5.82 µM (inactive)
GI50 (HCC 2998): > 10 µM (inactive)
GI50 (MDA-MB-435): > 10 µM (inactive)
GI50 (EKVX): > 10 µM (inactive)
GI50 (HCT-15): > 10 µM
GI50 (OVCAR-3): > 10 µM (inactive)
GI50 (OVCAR-8): > 10 µM (inactive)
GI50 (HT-29): 8.67 µM (inactive)
GI50 (UACC-257): > 10 µM (inactive)
GI50 (Malme-3M): > 10 µM (inactive)

Cc1cccc(NC(=O)/C=C/c2ccccc2)c1C
GI50 (NCI-H522): > 100 µM (inactive)
GI50 (Hs-578T): 37.7 µM (inactive)
GI50 (SW-620): > 100 µM (inactive)
GI50 (MDA-MB-231): > 100 µM (inactive)
GI50 (SNB-19): > 100 µM (inactive)
GI50 (HCC 2998): > 100 µM (inactive)
GI50 (COLO 205): > 100 µM (inactive)
GI50 (MDA-MB-435): > 100 µM (inactive)
GI50 (EKVX): > 100 µM (inactive)
GI50 (HCT-15): > 100 µM
GI50 (OVCAR-3): > 100 µM (inactive)
GI50 (OVCAR-8): > 100 µM (inactive)
GI50 (HT-29): > 100 µM (inactive)
GI50 (SK-MEL-28): > 100 µM (inactive)
GI50 (UACC-257): > 100 µM (inactive)
GI50 (Malme-3M): > 100 µM (inactive)

Cc1ccc(OCC2OC(C#N)C(Oc3ccc(C)cc3)C2Oc2ccc(C)cc2)cc1 (stereo not drawn)
GI50 (NCI-H522): > 100 µM (inactive)
GI50 (Hs-578T): > 100 µM (inactive)
GI50 (SW-620): > 100 µM (inactive)
GI50 (MDA-MB-231): > 100 µM (inactive)
GI50 (SNB-19): > 100 µM (inactive)
GI50 (NCI/ADR-RES): > 100 µM (inactive)
GI50 (HCC 2998): > 100 µM (inactive)
GI50 (COLO 205): > 100 µM (inactive)
GI50 (MDA-MB-435): > 100 µM (inactive)
GI50 (EKVX): > 100 µM (inactive)
GI50 (HCT-15): > 100 µM
GI50 (OVCAR-3): > 100 µM (inactive)
GI50 (OVCAR-8): > 100 µM (inactive)
GI50 (HT-29): > 100 µM (inactive)
GI50 (SK-MEL-28): > 100 µM (inactive)

— ChEMBL document CHEMBL1201862, “PubChem BioAssay data set” (2004)
